Experimental data: patent US20220281930A1, “COMPOSITIONS AND METHODS FOR THE TREATMENT OF PATHOLOGICAL PAIN AND ITCH” (DUKE UNIVERSITY, priority 2019, published 2022)

Legend:
KCC2 = assay: Immuno-cytochemistry morphometry of primary human cortical neurons, KCC2; type: cell-based; details: 400 nM KP
Protocol: The neuron-enriched cultures were established from fetal cortical specimens at 15-20 weeks of gestation. The protocols for tissue processing complied with all federal and institutional guidelines. The cultures were plated on PEI (polyethyleneimine solution) substrate and maintained in Neurobasal media supplemented with B27 as previously described (Pelsman et al., 2003, International journal of developmental neuroscience 21:117-124; Yeo et al., 2013, Proc Natl Acad Sci USA 110:4315-4320).
For immunostaining, the cultures were treated for 2-4 days with vehicle or 400 nM KP, fixed with 4% PFA at day 10, and processed for double-staining with anti-KCC2 and anti-synaptophysin or anti-NeuN (see Table 1).
The 0.34 micrometer confocal slices through entire cell layers at different optical fields (n=17-28 for each group) of the fixated cultures were acquired using a Zeiss LSM700 confocal microscope.
Image Z-stacks were analyzed using Imaris 9.2.1 software. Optical density intensity sum values for each stack/channel were divided by corresponding data volumes and the resulting values were normalized to the number of specifically labeled cells within each stack. There were no significant differences in the number of cells between vehicle and KP-treated groups.

nerve injury pain = assay: Nerve constriction injury (PSNL) pain model, mechanical withdrawal; type: in vivo, mouse
Protocol: For pain-related behavior, mechanical allodynia was assessed with von Frey filaments (Ugo Basile, Italy). The mice were placed on a 5×5-mm wire-mesh grid floor in individual compartments to avoid visual stimulation and allowed to adapt for 0.5 h prior to the von Frey test. The von Frey filament was then applied to the middle of the plantar surface of the hind paw with 5 g force. The withdrawal responses following the hind paw stimulation were measured at least three times, and the mechanical allodynia, which was defined as an increase in the number of withdrawal responses to the stimulation, was compared.
Thus, in vivo, KP functions as an analgesic when administered systemically in injury-related pain models.
Next, whether the analgesic effects of KP were mediated centrally at the spinal cord level was assessed.
Mechanical withdrawal was measured thresholds after nerve constriction injury (PSNL) (FIG. 12B and FIG. 12C). […] Thus, δ-cat(S276A) spinal transgenesis via AAV9 is sufficient to evoke analgesia after nerve constriction injury, to lesser degree also with δ-cat(WT). Importantly, δ-cat(S276A) spinal transgenesis was accompanied by increased expression of KCC2 in the SCDH. […] Moreover, our discovery points toward a genetically-encoded approach that can be developed for translation into clinical use as an alternative or complement to KP-related small molecules.

neuronal [Cl—]i = assay: Clomeleon chloride imaging in rat primary cortical neurons; type: cell-based
Protocol: Chloride imaging of primary cultured cortical neurons was conducted as previously described (Kuner and Augustine, 2000, Neuron 27:447-459; Liedtke et al., 2013, Small 9:1066-1075; Yeo et al., 2009, J Neurosci 29:14652-14662). A Clomeleon expression plasmid was transfected into primary cortical neurons by electroporation (Amaxa Nucleofector Device). Transfected neurons were verified by yellow fluorescent protein (YFP) fluorescence, and ratiometric images (excitation at λ=434 nm, dual emission at λ=485 and 535 nm; for resting chloride, six stable frames at […] were captured, which were averaged) were acquired using RATIOTOOL program. Calibration of Clomeleon signals (535 nm/485 nm emission ratio) was performed by using tributyltin-nigericin to establish a standard curve, which was then normalized for measured intraneuronal pH to take into account the pH sensitivity of Clomeleon.

N2a cultured cells = assay: Neuronalization of N2a cultured cells; type: cell-based, mouse; details: KP 0.2 μM for 3 days
[1] = system: mouse KCC2 promoter constructs; assay: KCC2 promoter luciferase reporter assay in N2a cells; type: cell-based; details: KP 400 nM
Excerpt: A fragment of the mouse KCC2 gene promoter (position −2052 […]) was amplified from genomic DNA prepared from cultured mouse primary glial cells. A 2.5 kb PCR fragment was cloned into the pGL4.17-Basic Vector (Promega) to generate the KCC2 promoter reporter construct. TCF and Kaiso binding sites were identified in this fragment. Using wild-type construct pGL4.17-KCC2 as a template, site-directed mutagenesis using Phusion DNA Polymerase enzyme (Thermo Fisher F549L) in conjunction with complementary primers bearing the specific mutation were used to mutate the Kaiso and TCF DNA-binding sites. PCR was followed by Dpn1 enzyme digestion to remove parental plasmid DNA. All constructs were verified by sequencing.
N2a cells were grown to 90% confluency in 24-well dishes in 0.4 mL of medium (DMEM, 2% Fetal Bovine Serum, 2 mM glutamine, 1% Non-essential amino acids, and 1% Penicillin/Streptomycin). Cells were transiently transfected using TurboFect reagent (Thermo Fisher R0531), with 500 ng of the pGL4.17-constructs plus 20 ng of the control Renilla plasmid (Promega, E2231) to normalize for transfection efficiency. Twenty-four hours after transfection, luminescence was measured using the Dual-Luciferase® Reporter Assay System (Promega) in a microplate luminometer (Veritas, Turner Biosystems). Mutant promoters were compared to WT, and the response of the respective promoter to KP (400 nM) was measured. Three independent transfection experiments were carried out and LUC assays were done in triplicates for each transfection. RLU is expressed as firefly luciferase activity relative to Renilla LUC activity.
Promoter expression constructs were built with rationally-targeted deletions to interrogate the effects of the Kaiso- and TCF-binding sites on activity of the KCC2 promoter and to determine if this activity was regulated by KP. For ease of transfection, key to this method, N2a neural cells were again used. The 5′ and 3′ delta-cat Kaiso binding sites functioned in repressive and enhancing manners, respectively (FIG. 11D).

Q: What does the source list for `O=C1Cc2c([nH]c3ccc(Br)cc23)-c2ccccc2N1` [kenpaullone, 9-bromo-7,12-dihydro-indolo [3,2-d] [1]benzazepin-6(5H)-one]?
A: increased KCC2 expression relative to vehicle (KCC2): 62%; analgesic effect on sensitized mechanical withdrawal (nerve injury pain; 10 mg/kg i.p. daily after nerve constriction injury): less accentuated; analgesic effect on sensitized mechanical withdrawal (nerve injury pain; 30 mg/kg i.p. daily after nerve constriction injury): more pronounced; behavioral sensitization of juvenile mice (nerve injury pain; KP 30 mg/kg, PSNL, juvenile mice): almost complete behavioral recovery; mechanical allodynia (nerve injury pain; intrathecal 30 μg, nerve constriction injury): reduced mechanical allodynia; protracted analgesia (nerve injury pain; systemic KP, d7-14 after nerve constriction): almost complete elimination of sensitization; KCC2 chloride transporter mediated chloride efflux (neuronal [Cl—]i; KP vs vehicle at 10 min and 20 min time-points): does not enhance; neuronal [Cl—]i (neuronal [Cl—]i; clomeleon, after KP treatment vs vehicle): robustly and significantly reduced; time to enhanced KCC2 gene expression and KCC2 chloride extrusion function (neuronal [Cl—]i; rat neurons, FIG. 2D): ≤ 3 h; neuronal differentiation (N2a cultured cells): increased process formation; KCC2 promoter LUC activity ([1]; Kaiso1 deletion (ΔK1) construct): significantly enhanced further; KCC2 promoter LUC activity ([1]; TCF deletion constructs of FIG. 11C): did not increase; KCC2 promoter LUC activity ([1]; deletion of both Kaiso sites): non-responsiveness; KCC2 promoter LUC activity ([1]; triple-deletion of both Kaiso sites and TCF site): completely non-responsive
